Results taken from article PMC6345968, “Structural basis for species-selective targeting of Hsp90 in a pathogenic fungus” (Nature Communications, 2019).
Values after ≈ are worked out from the molar mass of the structure shown. Read-outs that look alike come from different tables or passages of the source.

Legend:
[1] = system: C. albicans SN95; test: Growth inhibition in culture; assay type: cell-based, Candida albicans; details: 48-hour exposure
From the text: (§1) We began by measuring inhibition of C. albicans growth in culture.
(§2) Each colored box represents the mean of duplicate determinations. Color scale for relative growth is provided to far right of panel, green: no inhibition to black: complete inhibition. […] Cultures were then fixed and stained by Periodic Acid-Schiff (PAS) technique to visualize fungal burden (dark red/purple signal) and underlying human cells (light pink signal). Representative fields from conventional light photomicrographs are presented at the same magnification in all panels. The experiment was repeated in two independent biological replicates to confirm results. Scale bar, 100 μm
(§3) Antifungal tolerance and resistance were determined in flat bottom, 96-well microtiter plates using a modified broth microdilution protocol as described[8],[10]. All Hsp90 inhibitors were formulated in dimethyl sulfoxide (DMSO, Sigma Aldrich Co.); fluconazole was dissolved in sterile ddH2O. Each strain was tested in duplicate on at least two occasions. […] To test for fungicidal activity, cultures from MIC plates were spotted on YPD agar plates using a spotter (Frogger, V&P Scientific, Inc). Plates were photographed after 48 h of incubations at 30 °C.

[2] = system: C. albicans clinical isolate CaCi-2; test: Growth inhibition in culture; assay type: cell-based, Candida albicans; details: 48-hour exposure
From the text: as §1, §2, §3

[3] = system: Raw264.7 macrophages; test: Phagocytosis of GFP C. albicans by macrophages, flow cytometry; assay type: cell-based, mouse; details: 2 h pre-treatment
Procedure: Compromise of host immune function and other target-related toxicities preclude the use of non-species-selective Hsp90 inhibitors in the treatment of fungal infections. Host defense against invasive infection relies heavily on the ingestion and destruction of C. albicans by innate immune cells, such as macrophages. […] After an additional two hours, phagocytosis of the fluorescently labeled fungi was measured by flow cytometry. […] This Hsp90-dependent morphogenetic program has an important role in the organism’s virulence and interactions with host immune effectors such as macrophages.
The ingestion of GFP-marked C. albicans CaCi-2 (CaLC867, Table S4) by mouse macrophages was monitored using flow cytometry. Raw264.7 macrophage cultures were pre-treated with various concentrations of Hsp90 inhibitors for 2 h at 37 °C and then infected with fungus at a multiplicity of infection of ~2 for an additional 2 h. Wells were harvested by trypsinization and resultant cell suspensions incubated with Guava ViaCount reagent per manufacturer’s recommendation (Millipore Sigma, Cat #4000-0040). Red fluorescent signal was used to identify macrophages while green fluorescent signal identified the fungus. Dual positive (red and green) events with appropriate forward- and side-scatter parameters were quantitated as representative of ingestion of fungus by a macrophage. […]

[4] = system: S. cerevisiae expressing C. albicans Hsp90; test: Broth microdilution growth inhibition (MIC), yeast with C. albicans Hsp90 as sole Hsp90; assay type: cell-based, Saccharomyces cerevisiae
From the text: (§4) A critical consideration in the development of an effective antifungal is not just target binding, but also access to the target across microbial cell membranes and cell walls. Therefore, we evaluated the potency and selectivity of oxime analogs using drug susceptibility assays. We used strains of S. cerevisiae where both endogenous genes encoding isoforms of Hsp90 have been disrupted and growth is solely dependent upon C. albicans or human Hsp90 isoforms.
as §3

[5] = system: S. cerevisiae expressing human Hsp90α; assay type: cell-based, Saccharomyces cerevisiae; details: isogenic strains
From the text: as §4, §3

[6] = system: C. albicans CaCi-2; test: Checkerboard with fluconazole, Bliss independence; assay type: cell-based, Candida albicans; details: 48 hours
Procedure: Each colored box represents the mean of duplicate determinations. […] Error bars, SD.
as §3

[7] = system: 293T reporter cells
[8] = target: T1, Hsp90 in C. albicans (SC5314) lysate (Candida albicans, UniProt P46598); test: biochemical; assay type: binding; details: for FP signal: raw
T1 construct: endogenous in cells; host or cells: C. albicans SC5314 whole-cell lysate
T1 sequence (P46598 whole entry): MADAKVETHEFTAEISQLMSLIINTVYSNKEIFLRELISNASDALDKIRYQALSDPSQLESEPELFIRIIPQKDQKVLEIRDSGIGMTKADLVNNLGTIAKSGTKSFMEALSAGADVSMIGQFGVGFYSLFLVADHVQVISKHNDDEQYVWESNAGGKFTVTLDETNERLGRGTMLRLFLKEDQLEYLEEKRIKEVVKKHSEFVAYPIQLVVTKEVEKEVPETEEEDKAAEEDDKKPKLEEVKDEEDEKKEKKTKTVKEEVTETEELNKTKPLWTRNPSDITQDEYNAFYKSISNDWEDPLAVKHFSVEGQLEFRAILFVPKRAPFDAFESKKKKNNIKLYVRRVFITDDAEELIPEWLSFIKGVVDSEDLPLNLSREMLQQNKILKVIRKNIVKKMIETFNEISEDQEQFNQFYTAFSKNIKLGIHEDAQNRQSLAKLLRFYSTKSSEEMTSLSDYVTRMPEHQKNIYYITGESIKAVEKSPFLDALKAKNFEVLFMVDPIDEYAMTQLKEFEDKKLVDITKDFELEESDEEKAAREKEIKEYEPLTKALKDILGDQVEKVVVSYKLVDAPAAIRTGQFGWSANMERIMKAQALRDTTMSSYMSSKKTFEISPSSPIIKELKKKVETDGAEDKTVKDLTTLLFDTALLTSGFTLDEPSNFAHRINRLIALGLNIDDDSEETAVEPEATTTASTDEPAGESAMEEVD

[9] = system: Hsp90 in HEPG2 lysate; details: for FP signal: raw
[10] = SC5314 lysate, 1.372 nM compound
[11] = SC5314 lysate, 4.115 nM compound
[12] = SC5314 lysate, 12.346 nM compound
[13] = SC5314 lysate, 37.037 nM compound
[14] = SC5314 lysate, 111.111 nM compound
[15] = SC5314 lysate, 333.333 nM compound
[16] = SC5314 lysate, 1000 nM compound
[17] = SC5314 lysate, 3000 nM compound

C[C@@H]1C[C@H]2O[C@@H]2/C=C\C=C\C(=O)Cc2c(Cl)c(O)cc(O)c2C(=O)O1 [radicicol, reference compound]
single-agent growth inhibition [1]: comparable single-agent activity
single-agent growth inhibition [2]: comparable single-agent activity
effect on engulfment of C. albicans [3]: Neither compound impaired engulfment
growth inhibition ([4]; twofold dilution series, heat map): significantly inhibit growth
activity compared with strain expressing C. albicans Hsp90 [5]: converse
Bliss synergy δ with fluconazole [6]: 22.6
heat-shock reporter activation [7]: concentration-dependent reporter activation

C[C@@H]1C[C@@H]2O[C@@H]2/C=C\C=C\C(=NOCc2ccccc2Cl)Cc2c(Cl)c(O)cc(O)c2C(=O)O1 [compound 4]
normalized fungal selectivity in lysates ([8]; C. albicans SC5314 vs HEPG2 lysate, FP): 2.9 fold
EC50 ([8]; EC50, SC5314 lysate, not normalized, oxime panel experiment 220817): 531 nM
Ratio re. GdA ([8]; EC50 relative to GdA, SC5314 lysate): 31.1993
FP signal relative to 0 nM ([8]; SC5314 lysate, 0.457 nM compound): 0.9904
FP signal (raw) ([8]; SC5314 lysate, 1.372 nM): 208
FP signal relative to 0 nM [8, 10]: 1
FP signal [8, 10]: 208
FP signal (raw) ([8]; SC5314 lysate, 4.115 nM): 207
FP signal relative to 0 nM [8, 11]: 0.9952
FP signal [8, 11]: 207
FP signal (raw) ([8]; SC5314 lysate, 12.346 nM): 202
FP signal relative to 0 nM [8, 12]: 0.9712
FP signal [8, 12]: 202
FP signal (raw) ([8]; SC5314 lysate, 37.037 nM): 199
FP signal relative to 0 nM [8, 13]: 0.9567
FP signal [8, 13]: 199
FP signal (raw) ([8]; SC5314 lysate, 111.111 nM): 186
FP signal relative to 0 nM [8, 14]: 0.8942
FP signal [8, 14]: 186
FP signal (raw) ([8]; SC5314 lysate, 333.333 nM): 145
FP signal relative to 0 nM [8, 15]: 0.6971
FP signal [8, 15]: 145
FP signal (raw) ([8]; SC5314 lysate, 1000 nM): 75
FP signal relative to 0 nM [8, 16]: 0.3606
FP signal [8, 16]: 75
FP signal (raw) ([8]; SC5314 lysate, 3000 nM): 39
FP signal relative to 0 nM [8, 17]: 0.1875
FP signal [8, 17]: 39
HepG2/SC5314 ([8]; ratio of GdA-normalized EC50s, human over fungal lysate): 2.89
HepG2/SC5314 ([8]; ratio of GdA-relative EC50 ratios, HepG2 over SC5314): 2.89
MIC [4]: 2.6 µM (≈ 1.31 µg/mL)
Ratio rel. GdA (HepG2) ([9]; EC50 / EC50 of GdA in HepG2 lysate): 90.1713
Ratio rel. GdA (HepG2) ([9]; EC50 relative to GdA, HEPG2 lysate): 90.1713
FP signal, Fxn Control ([9]; HEPG2 lysate, log concentration 0.137354 (1.372 nM)): 1.0099
FP signal, Fxn Control ([9]; HEPG2 lysate, log concentration 0.61437 (4.115 nM)): 1.0198
FP signal, Fxn Control ([9]; HEPG2 lysate, log concentration 1.09153 (12.346 nM)): 1.0099
FP signal, Fxn Control ([9]; HEPG2 lysate, log concentration 1.56864 (37.037 nM)): 1.0099
FP signal, Fxn Control ([9]; HEPG2 lysate, log concentration 2.04576 (111.111 nM)): 0.9901
FP signal, Fxn Control ([9]; HEPG2 lysate, log concentration 2.52288 (333.333 nM)): 0.9158
FP signal, Fxn Control ([9]; HEPG2 lysate, log concentration 3 (1000 nM)): 0.6881
FP signal, Fxn Control ([9]; HEPG2 lysate, log concentration 3.47712 (3000 nM)): 0.2178
FP signal, Fxn Control ([9]; HEPG2 lysate, log concentration -0.340084 (0.457 nM)): 1.0099
FP signal (raw) ([9]; HepG2 lysate, 0.457 nM): 204
FP signal ([9]; HepG2 lysate, 0.457 nM compound): 204
FP signal (raw) ([9]; HepG2 lysate, 1.372 nM): 204
FP signal ([9]; HepG2 lysate, 1.372 nM compound): 204
FP signal (raw) ([9]; HepG2 lysate, 4.115 nM): 206
FP signal ([9]; HepG2 lysate, 4.115 nM compound): 206
FP signal (raw) ([9]; HepG2 lysate, 12.346 nM): 204
FP signal ([9]; HepG2 lysate, 12.346 nM compound): 204
FP signal (raw) ([9]; HepG2 lysate, 37.037 nM): 204
FP signal ([9]; HepG2 lysate, 37.037 nM compound): 204
FP signal (raw) ([9]; HepG2 lysate, 111.111 nM): 200
FP signal ([9]; HepG2 lysate, 111.111 nM compound): 200
FP signal (raw) ([9]; HepG2 lysate, 333.333 nM): 185
FP signal ([9]; HepG2 lysate, 333.333 nM compound): 185
FP signal (raw) ([9]; HepG2 lysate, 1000 nM): 139
FP signal ([9]; HepG2 lysate, 1000 nM compound): 139
FP signal (raw) ([9]; HepG2 lysate, 3000 nM): 44
FP signal ([9]; HepG2 lysate, 3000 nM compound): 44
EC50 ([9]; HepG2 lysate, oxime panel experiment 220817): 2000 nM
